Experimental findings from DBAASP are described below.

In brackets after ≈: the same amount, converted by molar mass. Some results are limits rather than exact numbers.

Test in all cases: ≥ marks a high value that may be exact or a test limit, other limits are often not marked, values filed in µg/mL are converted to µM
The subject of assay [1] is Candida albicans ATCC 2002.
Assay [2] concerns Staphylococcus aureus ATCC 25923.
In assay [3] the test system is Rhodococcus rhodochrous X15.
The subject of assay [4] is Psychrobacter faecalis X29.
The test system of assay [5] is Bacillus licheniformis X39.
Assay [6] has as its system Staphylococcus carnosus KHS.
Assay [7] deals with Enterococcus faecalis 981.
In assay [8] the test system is Staphylococcus aureus ATCC 2592.
For assay [9], the system named is Pseudomonas aeruginosa Ps4.
In assay [10] the test system is Klebsiella pneumoniae ATCC 10031.
Assay [11] deals with Escherichia coli DH5alpha.
The test system of assay [12] is Salmonella enterica subsp. enterica serovar Typhimurium ATCC 14028.
A further assay relates to Escherichia coli JW0013.

The MIC is the least concentration at which growth counts as inhibited. Higher therefore signals a less susceptible organism. As to `CC[C@H](C)[C@H](NC(=O)[C@H](C)N)C(=O)N[C@@H](CC(C)C)C(=O)N[C@H](C(=O)N[C@H](C(=O)N[C@@H](CC(C)C)C(=O)N[C@@H](C)C(=O)N[C@@H](CC(N)=O)C(=O)N[C@@H](Cc1c[nH]c2ccccc12)C(=O)N[C@@H](C)C(=O)N[C@@H](CCCN=C(N)N)C(=O)N[C@@H](CCCCN)C(=O)N[C@@H](Cc1ccccc1)C(=O)N[C@@H](CC(C)C)C(N)=O)[C@@H](C)O)[C@@H](C)O` [AILTTLANWARKFL], the MIC in [1] was at least 75 µM; in [2], 37.5 µM (≈ 60.6 µg/mL); in assay [3], 4.8 µM (≈ 7.76 µg/mL); in assay [4], at least 75 µM; in [5] it was 19 µM (≈ 30.7 µg/mL); in assay [6], at least 37.5 µM. The results for the MIC in assay [7] and in assay [8] were at least 150 µM and at least 46.4 µM, respectively.

Molecule `CC[C@H](C)[C@H](NC(=O)[C@H](CC(N)=O)NC(=O)[C@H](CCCN=C(N)N)NC(=O)[C@H](CCC(N)=O)NC(=O)[C@H](Cc1c[nH]c2ccccc12)NC(=O)[C@@H](N)CS)C(=O)N[C@@H](CCCN=C(N)N)C(=O)N[C@@H](CCCCN)C(=O)N[C@@H](CS)C(=O)N[C@@H](CCCN=C(N)N)C(N)=O` [CWQRNIRKCR] displayed an MIC in [9] of at least 183 µM.

Regarding `CC[C@H](C)[C@H](NC(=O)[C@@H]1CCCN1C(=O)[C@H](Cc1ccccc1)NC(=O)[C@@H](N)Cc1ccccc1)C(=O)N[C@H](C(=O)NCC(=O)N[C@@H](CCCCN)C(=O)N[C@@H](CC(C)C)C(=O)N[C@@H](CC(C)C)C(=O)N[C@@H](CO)C(=O)NCC(=O)N[C@@H](CC(C)C)C(=O)N[C@@H](Cc1ccccc1)C(N)=O)C(C)C` [FFPIVGKLLSGLF], the MIC in [2] was 150 µM (≈ 216 µg/mL); in assay [3], 4.5 µM (≈ 6.47 µg/mL); in assay [5], 19 µM (≈ 27.3 µg/mL); in assay [6], 19 µM (≈ 27.3 µg/mL); in assay [7], at least 75 µM.

Consider `CC(C)C[C@H](NC(=O)[C@H](CCCCN)NC(=O)[C@H](CCCCN)NC(=O)[C@H](CC(C)C)NC(=O)[C@H](CC(C)C)NC(=O)[C@H](CCCCN)NC(=O)[C@H](CC(C)C)NC(=O)[C@@H](N)Cc1ccccc1)C(=O)N[C@@H](C)C(=O)N[C@@H](C)C(=O)N[C@@H](CCCCN)C(=O)N[C@@H](CC(C)C)C(=O)N[C@@H](Cc1ccccc1)C(=O)O` [FLKLLKKLAAKLF], for which the MIC in [10] was determined as 16.3 µM (≈ 25 µg/mL); in assay [11] it was 4.08 µM (≈ 6.25 µg/mL); in assay [12], 16.3 µM (≈ 25 µg/mL).

As for `CC[C@H](C)[C@H](NC(=O)[C@@H]1CCCN1C(=O)[C@H](CC(C)C)NC(=O)[C@@H](N)Cc1ccccc1)C(=O)N[C@H](C(=O)NCC(=O)N[C@@H](CCCCN)C(=O)N[C@@H](CC(C)C)C(=O)N[C@@H](CC(C)C)C(=O)N[C@@H](CO)C(=O)NCC(=O)N[C@@H](CC(C)C)C(=O)N[C@@H](Cc1ccccc1)C(N)=O)C(C)C` [FLPIVGKLLSGLF], the MIC was 150 µM (≈ 210 µg/mL) in assay [2]; 9 µM (≈ 12.6 µg/mL) in [3]; 19 µM (≈ 26.7 µg/mL) in [5]; 19 µM (≈ 26.7 µg/mL) in [6]; at least 37.5 µM in [7].

Molecule `CC[C@H](C)[C@H](NC(=O)[C@H](CCCCN)NC(=O)[C@H](CCCCN)NC(=O)[C@H](CCCCN)NC(=O)[C@@H](NC(=O)[C@H](CCCCN)NC(=O)[C@H](CCCN=C(N)N)NC(=O)[C@@H](NC(=O)[C@H](CC(N)=O)NC(=O)[C@H](CCCN=C(N)N)NC(=O)[C@H](CCC(N)=O)NC(=O)[C@H](Cc1c[nH]c2ccccc12)NC(=O)[C@@H](N)Cc1ccccc1)[C@@H](C)CC)C(C)C)C(N)=O` [FWQRNIRKVKKKI] came in with an MIC in assay [9] of at least 143 µM.

Regarding `CC(C)[C@H](NC(=O)[C@H](CCCCN)NC(=O)[C@H](CCCN=C(N)N)NC(=O)[C@H](Cc1ccc(O)cc1)NC(=O)[C@H](CC(N)=O)NC(=O)[C@H](CCCN=C(N)N)NC(=O)[C@H](CCC(N)=O)NC(=O)[C@H](Cc1c[nH]c2ccccc12)NC(=O)[C@@H](N)Cc1ccccc1)C(=O)N[C@@H](CCCN=C(N)N)C(N)=O` [FWQRNYRKVR], the MIC in assay [9] was at least 172 µM.

As for `CC[C@H](C)[C@H](NC(=O)[C@H](CCCN=C(N)N)NC(=O)[C@H](Cc1c[nH]c2ccccc12)NC(=O)[C@@H](N)Cc1ccccc1)C(=O)N[C@@H](CCCN=C(N)N)C(=O)N[C@@H](CCCCN)C(=O)N[C@H](C(=O)N[C@@H](CCCN=C(N)N)C(N)=O)C(C)C` [FWRIRKVR], the MIC in assay [9] was at least 215 µM.

Turning to `CC[C@H](C)[C@H](NC(=O)[C@H](CCCN=C(N)N)NC(=O)[C@H](Cc1c[nH]c2ccccc12)NC(=O)[C@@H](N)Cc1ccccc1)C(=O)N[C@@H](Cc1c[nH]c2ccccc12)C(=O)N[C@@H](CCCN=C(N)N)C(=O)N[C@@H](Cc1c[nH]c2ccccc12)C(=O)N[C@@H](CCCN=C(N)N)C(N)=O` [FWRIWRWR], in assay [9], the MIC came to 23.9 µM (≈ 31.2 µg/mL).

For `CC[C@H](C)[C@@H]1NC(=O)[C@H](CCCCN)NC(=O)[C@@H](NC(=O)[C@H](CCCCN)NC(=O)[C@H](C)NC(=O)[C@H](CCCCN)NC(=O)[C@H](CC(=O)O)NC(=O)[C@H](CCSC)NC(=O)[C@H](CC(C)C)NC(=O)[C@@H](NC(=O)CNC(=O)[C@H](C)NC(=O)[C@H](CC(C)C)NC(=O)[C@H](CC(N)=O)NC(=O)[C@@H](NC(=O)[C@@H](NC(=O)[C@@H](NC(=O)[C@H](CC(N)=O)NC(=O)[C@H](CCSC)NC(=O)[C@H](C)NC(=O)[C@@H](NC(=O)[C@H](CC(N)=O)NC(=O)[C@H](CC(C)C)NC(=O)[C@H](Cc2ccccc2)NC(=O)CN)[C@@H](C)O)[C@@H](C)O)C(C)C)[C@@H](C)O)[C@@H](C)O)CSSC[C@@H](C(=O)O)NC(=O)CNC(=O)[C@H](CCCN=C(N)N)NC1=O` [GFLNTAMNTVTNLAGTLMDKAKCKIRGC], the MIC in assay [4] is at least 400 µM.

In assay [9], `CC[C@H](C)[C@H](NC(=O)[C@H](CCCN=C(N)N)NC(=O)[C@@H](NC(=O)[C@H](CC(N)=O)NC(=O)[C@H](CCCN=C(N)N)NC(=O)[C@H](CCC(N)=O)NC(=O)[C@H](Cc1c[nH]c2ccccc12)NC(=O)[C@@H](N)CC(C)C)[C@@H](C)CC)C(=O)N[C@@H](CCCN=C(N)N)C(=O)N[C@@H](CCCN=C(N)N)C(N)=O` [LWQRNIRIRR] returned an MIC of at least 177 µM.

For `CC[C@H](C)[C@H](NC(=O)[C@H](CCCCN)NC(=O)[C@H](CC(=O)O)NC(=O)[C@H](CC(C)C)NC(=O)[C@@H](NC(=O)[C@H](CC(N)=O)NC(=O)[C@H](CC(C)C)NC(=O)[C@@H](NC(=O)[C@H](Cc1ccccc1)NC(=O)[C@H](CCC(N)=O)NC(=O)[C@H](CCCCN)NC(=O)CNC(=O)[C@H](C)NC(=O)[C@H](CC(N)=O)NC(=O)[C@H](CCCCN)NC(=O)[C@H](Cc1ccccc1)NC(=O)[C@H](CC(N)=O)NC(=O)[C@H](CCC(=O)O)NC(=O)[C@H](Cc1c[nH]c2ccccc12)NC(=O)[C@H](CC(C)C)NC(=O)[C@@H](N)CO)[C@@H](C)CC)[C@@H](C)CC)C(=O)N[C@@H](CCCN=C(N)N)C(=O)N[C@H]1CSSC[C@@H](C(=O)N[C@@H](CCCN=C(N)N)C(=O)N[C@H](C(=O)O)[C@@H](C)O)NC(=O)CNC(=O)CNC(=O)[C@H](C)NC(=O)[C@H](C(C)C)NC(=O)[C@H](CCCN=C(N)N)NC1=O` [SLWENFKNAGKQFILNILDKIRCRVAGGCRT], the MIC in assay [4] stood at 1.7 µM (≈ 6.04 µg/mL); in [5] it was 14 µM (≈ 49.7 µg/mL); in assay [8], 1.7 µM (≈ 6.04 µg/mL).

On to `CC[C@H](C)[C@H](NC(=O)[C@H](CCCN=C(N)N)NC(=O)[C@H](CCCN=C(N)N)NC(=O)[C@@H]1CCCN1C(=O)[C@@H]1CCCN1C(=O)[C@H](CCCN=C(N)N)NC(=O)[C@@H]1CCCN1C(=O)[C@H](CCCN=C(N)N)NC(=O)[C@@H]1CCCN1C(=O)[C@H](CCCN=C(N)N)NC(=O)[C@H](CCCN=C(N)N)NC(=O)[C@@H]1CCCN1C(=O)[C@H](CCCN=C(N)N)NC(=O)[C@H](CCCCN)NC(=O)[C@H](CC(=O)O)NC(=O)[C@@H](N)C(C)C)C(=O)N[C@@H](Cc1ccc(O)cc1)C(=O)N[C@@H](CC(N)=O)C(=O)N[C@@H](CCCN=C(N)N)C(N)=O` [VDKRPRRPRPRPPRRIYNR], for which the MIC against Escherichia coli JW0013 was 0.965 µM (≈ 2.4 µg/mL).
